Data on one compound can be found in article PMC5766581, “NF-κB inducing kinase is a therapeutic target for systemic lupus erythematosus” (Nature Communications, 2018).

A value given as a limit tells only on which side of the number the result lay.

By Ki is commonly meant the equilibrium dissociation constant of an inhibitor or competing ligand from its target. A low value points to tighter binding.

In one assay the test system is Balb/c mice. Briefly: TNP-OVA immunization model. It counts as in vivo, mouse. The conditions noted are these: 300 mg/kg P.O. BID, 10 days. The text has this:
Four to nine 8-week-old female Balb/c mice were randomized into experimental groups upon delivery from vendor. […] Investigators were not blinded to experimental samples.

For assay [1], the system named is human B cells. Briefly: Human B cell rhCD40L proliferation assay. The class given is cell-based. The conditions noted are these: thymidine incorporation, day four; read-out: Human B cell anti-CD40 proliferation IC50. In general terms: Dividing cells build labelled thymidine or BrdU into new DNA.
Assay [2] has as its system human B cells. Briefly: BAFF B cell survival assay (Cell Titer Glo). It counts as cell-based. The conditions noted are these: BAFF induced; mean ± SD. On the procedure: Human B cells were isolated using Miltenyi Human B cell isolation kit following ficoll separation of buffy coats. […] Mouse B cells were isolated from mouse spleen using Miltenyi mouse B cell isolation kit II. Cells were plated in Co-star 96-well plates at either 50,000 cells/well for the survival assays or at 150,000 cells/well for the proliferation assays. Compounds diluted in DMSO (final DMSO assay concentration = 0.1%) were added to the cells. The cells were incubated with compound for one hour at 37 °C. Stimulus was then added to the plates and survival or proliferation was measured after four days. For the proliferation assays, cells were treated with either Anti-IgM (20 μg/mL) or rhCD40L (10 μg/mL; R&D) or anti-mouse CD40 (100 ng/mL). Proliferation was measured using thymidine incorporation on day four. For the BAFF survival assay, cells were treated with human or mouse rBAFF (R&D Systems) at 10 ng/ml followed by Cell Titer Glo (Promega) to measure survival on day four.

The subject of assay [3] is rhCD40L induced ICOSL expression on human B cells. Briefly: ICOSL expression on human B cell assay. It counts as cell-based. The conditions noted are these: ICOSL MFI by FACS, mean ± SD, read-out: CD40-induced ICOSL IC50. On the procedure: Human B cells were isolated from whole blood. B cells were enriched by RosetteSep protocol (Stem Cell Technologies), and then isolated using Human B cell isolation kit II (Miltenyi). […] Mean fluorescent intensity (MFI) of CD40L and BAFF induced ICOSL expression was measured by flow cytometry on cells stained with anti-CD20 and anti-ICOSL, using a FACS Calibur instrument (BD). Plots and IC50 measurements were generated using GraphPad Prism Software.
In general terms: Flow cytometry measures light scatter and fluorescence of single cells or particles in a stream.

Assay [4] concerns nuclear p52 (non-canonical NF-κB signaling). Briefly: High content nuclear p52 imaging, anti-LTβR-stimulated HeLa cells. It counts as cell-based, human. The conditions noted are these: anti-LTβR induced, mean ± SD. On the procedure: (§1) The HeLa cell line was used to define the cellular selectivity of NIK inhibitors toward inhibition of classical vs. non-classical NF-κB signaling using high content cellular imaging assays. For the nuclear translocation assay p52 (non-canonical NF-κB signaling), HeLa cells were treated with different concentrations of compounds previously diluted in DMSO (final [DMSO] = 0.2% in all wells) in DMEM medium (10% FBS, 2 mM Glutamine) and then stimulated with 300 ng/mL of an anti-lymphotoxin beta receptor antibody for 4.5 h. In the REL-A nuclear translocation assay, HeLa cells were incubated with compounds for 4 h 50 min before stimulating them with 2 ng/mL TNF (R&D Systems) for 10 min. Cells were fixed with 4% paraformaldehyde, permeabilized by adding 0.1% Triton X-100 in phosphate buffered saline, and then are incubated with either 2 μg/mL anti-p52 antibody or 400 ng/mL anti-REL-A (p65) antibody. Finally, the cells are incubated with an Alexa488-labeled secondary antibody (Invitrogen) and DRAQ5 DNA stain (Biostatus). Imaging was carried out using an Opera reader (Perkin Elmer) and data were analyzed with Acapella software (Perkin Elmer). The p52 or REL-A translocation into the nucleus is quantified by the ratio of the nuclear to cytoplasmic signal intensity.

Assay [5] relates to nuclear RelA (canonical NF-κB signaling). Briefly: High content nuclear RelA imaging, TNF-stimulated HeLa cells. It counts as cell-based, human. The conditions noted are these: TNF induced. On the procedure: as §1
The test system of assay [6] is IL-12p40 production from human monocyte derived DC. Briefly: CD40L induced IL-12p40 production from human DCs. It counts as cell-based. The conditions noted are these: human monocyte derived DC, rhCD40L; mean ± SD; read-out: CD40-induced IL-12 p40 IC50. On the procedure: Human monocytes were enriched from whole blood (Monocyte enrichment RosetteSep, Stem Cell) followed by isolation using Monocyte Isolation Kit II (Miltenyi). Isolated monocytes were cultured (RPMI-10% FBS, penicillin/streptomycin, glutamine) with rhGM-CSF (100 ng/mL) and rhIL-4 (6.5 ng/mL) (R&D Systems) for 5 days with GM-CSF replacement on day 3. On Day 5 immature monocyte derived DCs were monitored for differentiation by flow cytometry ([…], CD83^low CD86^low CD209^+/hi). […] After 24 h plates were centrifuged and supernatants were removed for IL-12p40 cytokine measurement by ELISA (BD Biosciences). Plots and IC50 measurements were generated using GraphPad Prism software.

Assay [7] relates to human B cells. Briefly: Human B cell anti-IgM proliferation assay. It counts as cell-based. The conditions noted are these: thymidine incorporation, day four.
A further assay relates to mouse B cells. Briefly: BAFF B cell survival assay (Cell Titer Glo). The conditions noted are these: BAFF induced; mean ± SD. The class given is cell-based.
A further assay addresses T1, mouse NIK (Mus musculus, UniProt Q9WUL6).
T1 construct: mouse NIK kinase domain (a.a. 329–675) (1 nM); made in house; host or cells: baculovirus-infected insect cells
Briefly: NIK Transcreener ADP enzymatic assay. It counts as biochemical. The conditions noted are these: mouse NIK enzymatic activity; mean ± SD.

T1 sequence (Q9WUL6 329-675): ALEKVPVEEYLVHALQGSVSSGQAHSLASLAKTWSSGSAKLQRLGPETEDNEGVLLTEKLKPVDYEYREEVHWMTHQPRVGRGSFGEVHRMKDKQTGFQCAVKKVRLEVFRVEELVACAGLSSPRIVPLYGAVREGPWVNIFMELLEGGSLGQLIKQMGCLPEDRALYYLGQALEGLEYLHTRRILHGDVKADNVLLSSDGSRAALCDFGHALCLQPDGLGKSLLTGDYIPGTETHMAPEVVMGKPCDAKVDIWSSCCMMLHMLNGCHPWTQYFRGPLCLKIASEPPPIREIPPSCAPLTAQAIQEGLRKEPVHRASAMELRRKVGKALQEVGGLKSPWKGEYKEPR

Take `CN1CC[C@@](O)(C#Cc2cccc(-n3nc(C(N)=O)c4ccccc43)c2)C1=O` [NIK SMI2]: the “germinal center B cell development and antigen-specific IgG1 production” value in the assay with Balb/c mice is given as “reduced”. Moreover, the IC50 in the assay on human B cells [1] is over 10000 nM; in the assay with human B cells [2] it was 360 nM; in assay [3], 58.7 nM; in assay [4], 43 nM; in [5], over 2000 nM; in [6], 60.7 nM. Moreover, the IC50 in the assay on human B cells [7] is over 10000 nM; in the assay with mouse B cells, 1750 nM. Further, the Ki at mouse NIK is 0.84 nM.
